Values of other authors in patent US4760029A, “Assay for D-1 antagonistic activity of neuroleptic drugs” (Schering Corporation, priority 1984, dated 1988).

Tests used:
[1] = tested on: dopamine stimulated adenylate cyclase; settings: J. Pharmacol. Exp. Ther., 226, 462 (1983)
D-2 sites = settings: J. Pharmacol. Exp. Ther., 226, 462 (1983)
D-1 sites = settings: Eur. J. Pharmacol. 91, 153(1983)
[2] = J. Pharmacol. Exp. Ther., 226, 462 (1983)

CN1CCc2cc(Cl)c(O)cc2[C@@H](c2ccccc2)C1 [Compound, R-(+)-8-chloro-2,3,4,5-tetrahydro-3-methyl-5-phenyl-1H-3-benzazepin-7-ol]
blockade of dopamine stimulated adenylate cyclase [1]: potent blockade
displacement of ^3 H-spiperone binding (D-2 sites): weak displacement
ability to inhibit ^3 H-cis-(Z)-piflutixol binding (D-1 sites): very potent
prolactinemia [2]: no prolactinemia
